Consider two molecules from patent publication US10328075B2, “Method of treatment and compounds for use therein” (Baker Heart and Diabetes Institute, priority 2015, dated 2019).

This experiment addresses T1, hFPR2 (Homo sapiens, UniProt P25090).
T1 construct: expressed in transfected cells
T1 sequence (P25090 1-351): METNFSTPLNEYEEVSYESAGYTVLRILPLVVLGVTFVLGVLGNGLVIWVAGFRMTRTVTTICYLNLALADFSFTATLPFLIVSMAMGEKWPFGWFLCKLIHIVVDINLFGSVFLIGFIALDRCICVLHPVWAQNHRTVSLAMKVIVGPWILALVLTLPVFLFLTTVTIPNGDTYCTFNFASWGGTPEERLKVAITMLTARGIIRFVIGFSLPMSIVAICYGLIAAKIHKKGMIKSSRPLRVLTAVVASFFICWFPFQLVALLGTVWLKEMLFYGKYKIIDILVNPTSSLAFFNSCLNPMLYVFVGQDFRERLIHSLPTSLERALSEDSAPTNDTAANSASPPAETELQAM
As to the kind of experiment: ERK1/2 phosphorylation (AlphaScreen SureFire) in hFPR2-FlpIn-CHO cells. It counts as cell-based. To be noted: for Time of maximal ERK1/2 phosphorylation in hFPR2-CHO cells: 10 μM, pilot timecourse; for ΔLog(τ/KA), ERK1/2 phosphorylation, hFPR2-Flpln-CHO: normalized transduction coefficient, reference agonist Cmpd43; for Log(τ/KA), ERK1/2 phosphorylation, hFPR2-Flpln-CHO: transduction coefficient; for EC50: read-out: pEC50, ERK1/2 phosphorylation, hFPR2-Flpln-CHO (converted). The text has this:
cDNDA construct and generation of stable cell lines: cDNA in pcDNA3.1^+ encoding the human formyl peptide receptors (FPR) subtypes, hFPR1, hFPR2 and hFPR3 was obtained from Invitrogen. The sequences for 3 hFPR receptors were amplified by PCR and cloned into the Gateway entry vector, pDONR202™, using the BP clonase enzyme mix, according to the manufactures' instructions (Invitrogen Inc, Carlsbad, Calif., USA). All hFPR receptors constructs in pDONR201™ were subsequently transfected into the pEF5/FRT/V5/dest vector using the LR clonase enzyme mix (Invitrogen). Receptor constructs (pEF5/FRT/V5/dest) were used to transfect FIp-In CHO cells as described previously (Valant C et al., PNAS, 2014). Cells were selected using 500 μg/mL hydromycin to generate cell lines stably expressing each receptor construct. Cells were maintained and cultured in high glucose DMEM supplemented with 10% FBS, 16 mM HEPES and 500 μg/mL hydromycin at 37° C. under a humidified atmosphere containing 5% CO2.
In the various assays described below, cells were plated into 96-well transparent cell culture plates at 4×10^4 cells per well, cultured overnight in serum-free media at 37° C. in 5% CO2.
Measurement of extracellular signal regulated kinase 1 and 2 phosphorylation (pERK1/2): Initial ERK1/2 phosphorylation at Thr202/Tyr204 time-course experiments were performed to determine the time at which ERK1/2 phosphorylation was maximal after stimulation by each agonist. Cells were seeded onto transparent 96-well cell culture plates at 4×10^4 cells per well. After 6 h, cells were washed once with PBS, and then incubated in serum-free DMEM overnight, to allow FBS-stimulated phosphorylated ERK1/2 levels to subside. […] 10% (v/v) FBS was used as a positive control, with vehicle controls also included. The reaction was terminated by removal of study drugs and lysis of cells with 100 μL of SureFire lysis buffer (TGR Biosciences). Cell were lysed in SureFire lysis buffer and transferred to 384-well opaque proxiplates. Under low-light conditions, a 1:120 (v:v) dilution of AlphaScreen beads (both acceptor and donor):Surefire reaction buffer was prepared, which was mixed with the activation buffer in a ratio of 6:1 (v:v), respectively. Plates were incubated in the dark at 37° C. for 1 h before the fluorescence signal was measured by a Fusion-α plate reader (PerkinElmer Life and Analytical Sciences, Foster city, CA, USA) with standard AlphaScreen settings. Data were normalized to the maximal response elicited by 10% (v/v) FBS at the same time point.
Receptor mediated pERK1/2 levels were determined using the AlphaScreen™ ERK1/2 SureFire™ kit, as described previously (Keov, P et al., 2014). For all experiments, 10% FBS was used as internal positive control to stimulate pERK1/2, and which the maximum responses were used for normalization of data, whilst vehicle was used as negative control.
Data analysis: All data were analysed using GraphPad Prism 6.0 (GraphPad Software, San Deigo, Calif., USA). Where appropriate, concentration-response curves were fitted to derive the maximal agonist effect (Emax), and the ligand potency estimate (pEC50), where Emax is the maximal possible response of the system (not the agonist), basal is the basal level of response in the absence of agonist, and pEC50 is the negative logarithm of the agonist concentration that gives a response halfway between Emax and basal.
In the present study, FIp-IN CHO cells and Gateway plasmid were obtained from Invitrogen Inc (Carlsbad, Calif., USA). The sequences for all 3 known human FPRs (hFPR1, hFPR2 and hFPR3) were amplified by PCR and cloned into the Gateway entry vector, pDONR202TM, using the BP clonase enzyme mix, according to the manufacturers' instructions. The hFPR pDONR201TM constructs were subsequently transfected into the pEF5/FRT/V5/dest vector using the LR clonase enzyme mix (Invitrogen).
(Bead proximity is the source of the signal in Alpha formats.)

Where [1] appears, read: Table 2, percentage of ERK1/2 phosphorylation elicited by 10% FBS, read-out: Emax (%), ERK1/2 phosphorylation, hFPR2-Flpln-CHO.
The mark [2] stands for this setting: Table 8, percent of response elicited by 10% FBS, read-out: Emax, ERK1/2 phosphorylation, hFPR2-Flpln-CHO.

Where two headings read alike, the source gives them in different places.

`CSCC[C@H](NC=O)C(=O)N[C@@H](CC(C)C)C(=O)N[C@@H](Cc1ccccc1)C(=O)O` [fMLP, N-formyl-Met-Leu-Phe]: the “Time of maximal ERK1/2 phosphorylation in hFPR2-CHO cells” value worked out at 5 min. Under setting [1], the Emax turned out to be 68 ± 11%. Besides, for the setting “Table 8”, the “ΔLog(τ/KA), ERK1/2 phosphorylation, hFPR2-Flpln-CHO” value is recorded as −2.3 ± 0.2 and the “Log(τ/KA), ERK1/2 phosphorylation, hFPR2-Flpln-CHO” value is reported as 5.4 ± 0.1. For the same molecule, under setting [2], the Emax is 68 ± 11%.
With `CC(C)C1C(NC(=O)Nc2ccc(Cl)cc2)C(=O)N(c2ccccc2)N1C` (stereo not drawn) [BIDI-002], the “Time of maximal ERK1/2 phosphorylation in hFPR2-CHO cells” value turned out to be 5 min. The Emax under setting [1] turned out to be 95 ± 4%. Further, the EC50 (Table 2) is 55 nM. For the same molecule, under “Table 8”, the “ΔLog(τ/KA), ERK1/2 phosphorylation, hFPR2-Flpln-CHO” value is given as 0.0; the EC50 was 50.1 nM; the “Log(τ/KA), ERK1/2 phosphorylation, hFPR2-Flpln-CHO” value was 7.7 ± 0.2. Further, the Emax under setting [2] was 95 ± 4%.
